Reference: patent US9079895B2, “Morpholino compounds, uses and methods” (University of Dundee, priority 2012, dated 2015)
pKi: −log10 of the molar value. “And” between values parts separate entries of the source, which are not always exact repeats. Equal entries are not always repeated. Where two headings read alike, the source gives them in different places.

Experiments:
dopamine D4 receptor [1] = target: T1, dopamine D4 receptor (Homo sapiens (Human), UniProt P21917); assay: Secondary radioligand binding assay, D4
T1 sequence (P21917 whole entry, species assumed): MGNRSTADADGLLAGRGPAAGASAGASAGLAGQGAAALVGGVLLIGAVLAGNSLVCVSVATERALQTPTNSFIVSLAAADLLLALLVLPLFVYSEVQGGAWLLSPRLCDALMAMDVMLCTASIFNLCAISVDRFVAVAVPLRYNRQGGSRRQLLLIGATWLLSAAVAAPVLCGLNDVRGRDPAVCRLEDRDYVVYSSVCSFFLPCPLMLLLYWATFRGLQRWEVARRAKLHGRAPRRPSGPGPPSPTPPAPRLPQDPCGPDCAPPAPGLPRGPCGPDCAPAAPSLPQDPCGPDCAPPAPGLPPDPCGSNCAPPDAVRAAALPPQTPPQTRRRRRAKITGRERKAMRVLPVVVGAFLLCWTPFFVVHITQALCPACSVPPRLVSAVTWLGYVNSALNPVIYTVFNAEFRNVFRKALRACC
Protocol: (§1) 1. Secondary Radioligand Binding Assays
(§2) The detailed experimental protocols for the radioligand and functional receptor assays are available on the NIMH PDSP website at http://pdsp.med.unc.edu/UNC-CH %20Protocol %20Book.pdf.
Radioligand is diluted to five times the assay concentration (see Table 18) in Standard Binding Buffer. Typically, the assay concentration of radioligand is a value between one half the KD and the KD of a particular radioligand at its target. 50 μl aliquots of radioligand are dispensed into the wells of a 96-well plate containing 100 μl of Standard Binding Buffer. Then, duplicate 50 μl aliquots of the test and reference compound dilutions are added.
The 250 μl reactions are incubated at room temperature and shielded from light (to prevent photolysis of light-sensitive ligands) for 1.5 hours, then harvested by rapid filtration onto Whatman GF/B glass fiber filters pre-soaked with 0.3% polyethyleneimine using a 96-well Brandel harverster. Four rapid 500 μl washes are performed with chilled Standard Binding Buffer to reduce non-specific binding. Filters are placed in 6 ml scintillation tubes and allowed to dry overnight. The next day, 4 ml of EcoScint scintillation cocktail (National Diagnostics) are added to each tube. The tubes are capped, labeled, and counted by liquid scintillation counting. […] The filter mats are dried, then scintillant is melted onto the filters and the radioactivity retained on the filters is counted in a Microbeta scintillation counter.
(§3) Raw data (dpm) representing total radioligand binding (i.e. specific+non-specific binding) are plotted as a function of the logarithm of the molar concentration of the competitor (i.e. test or reference compound).
B. Dopamine Receptors: D1, D2, D3, D4, D5 Assay Buffers: Dopamine Binding Buffer (50 mM NaCl, 50 mM HEPES-HCl, 5 mM MgCl2, 0.5 mM EDTA, pH 7.4) Membrane Fraction Source: Transiently or stably transfected cell lines (e.g. HEK293, COS, CHO, NIH3T3)
(§4) The method is carried out in the manner described for the serotonin receptor assay above. Eleven dilutions (5× assay concentration) of the test and reference (see Table 19) compounds are prepared in Dopamine Binding Buffer by serial dilution, as previously described. Radioligand is diluted to five times the assay concentration (see Table 20) in Dopamine Binding Buffer.

5HT1a receptor = 5HT1a receptor (Homo sapiens (Human), UniProt P08908); assay: Secondary radioligand binding assay, 5HT1a; conditions: average of at least two experiments
Chain of 5HT1a receptor (P08908 whole entry): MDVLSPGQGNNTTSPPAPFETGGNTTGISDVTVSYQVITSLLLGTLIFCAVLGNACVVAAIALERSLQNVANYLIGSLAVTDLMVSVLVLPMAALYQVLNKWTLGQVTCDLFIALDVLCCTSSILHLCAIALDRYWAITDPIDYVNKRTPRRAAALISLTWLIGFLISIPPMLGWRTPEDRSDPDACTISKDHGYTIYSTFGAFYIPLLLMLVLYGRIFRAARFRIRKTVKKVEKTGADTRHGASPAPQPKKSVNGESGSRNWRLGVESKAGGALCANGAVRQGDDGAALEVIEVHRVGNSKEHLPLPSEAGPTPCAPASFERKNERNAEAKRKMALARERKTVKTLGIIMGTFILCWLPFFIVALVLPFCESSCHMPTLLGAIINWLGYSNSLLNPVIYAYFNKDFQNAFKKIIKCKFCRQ

5HT2c receptor = 5HT2c receptor (Homo sapiens (Human), UniProt P28335); assay: Secondary radioligand binding assay, 5HT2c; conditions: average of at least two experiments
Chain of 5HT2c receptor (P28335 33-458): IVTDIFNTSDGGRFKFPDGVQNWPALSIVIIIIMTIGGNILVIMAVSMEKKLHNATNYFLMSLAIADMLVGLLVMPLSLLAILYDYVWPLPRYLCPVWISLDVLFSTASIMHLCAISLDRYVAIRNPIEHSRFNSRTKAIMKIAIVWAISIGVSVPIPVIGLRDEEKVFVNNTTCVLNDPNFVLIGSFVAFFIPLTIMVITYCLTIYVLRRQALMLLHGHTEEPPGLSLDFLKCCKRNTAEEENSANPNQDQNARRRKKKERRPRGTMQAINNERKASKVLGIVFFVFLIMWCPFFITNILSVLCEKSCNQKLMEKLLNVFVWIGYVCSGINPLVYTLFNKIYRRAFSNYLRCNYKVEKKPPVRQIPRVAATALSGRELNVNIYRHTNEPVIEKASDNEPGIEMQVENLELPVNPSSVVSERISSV

hERG = hERG (Homo sapiens (Human), UniProt Q12809); assay: hERG assay (PatchXpress patch clamp); type: cell-based
Chain of hERG (Q12809 whole entry): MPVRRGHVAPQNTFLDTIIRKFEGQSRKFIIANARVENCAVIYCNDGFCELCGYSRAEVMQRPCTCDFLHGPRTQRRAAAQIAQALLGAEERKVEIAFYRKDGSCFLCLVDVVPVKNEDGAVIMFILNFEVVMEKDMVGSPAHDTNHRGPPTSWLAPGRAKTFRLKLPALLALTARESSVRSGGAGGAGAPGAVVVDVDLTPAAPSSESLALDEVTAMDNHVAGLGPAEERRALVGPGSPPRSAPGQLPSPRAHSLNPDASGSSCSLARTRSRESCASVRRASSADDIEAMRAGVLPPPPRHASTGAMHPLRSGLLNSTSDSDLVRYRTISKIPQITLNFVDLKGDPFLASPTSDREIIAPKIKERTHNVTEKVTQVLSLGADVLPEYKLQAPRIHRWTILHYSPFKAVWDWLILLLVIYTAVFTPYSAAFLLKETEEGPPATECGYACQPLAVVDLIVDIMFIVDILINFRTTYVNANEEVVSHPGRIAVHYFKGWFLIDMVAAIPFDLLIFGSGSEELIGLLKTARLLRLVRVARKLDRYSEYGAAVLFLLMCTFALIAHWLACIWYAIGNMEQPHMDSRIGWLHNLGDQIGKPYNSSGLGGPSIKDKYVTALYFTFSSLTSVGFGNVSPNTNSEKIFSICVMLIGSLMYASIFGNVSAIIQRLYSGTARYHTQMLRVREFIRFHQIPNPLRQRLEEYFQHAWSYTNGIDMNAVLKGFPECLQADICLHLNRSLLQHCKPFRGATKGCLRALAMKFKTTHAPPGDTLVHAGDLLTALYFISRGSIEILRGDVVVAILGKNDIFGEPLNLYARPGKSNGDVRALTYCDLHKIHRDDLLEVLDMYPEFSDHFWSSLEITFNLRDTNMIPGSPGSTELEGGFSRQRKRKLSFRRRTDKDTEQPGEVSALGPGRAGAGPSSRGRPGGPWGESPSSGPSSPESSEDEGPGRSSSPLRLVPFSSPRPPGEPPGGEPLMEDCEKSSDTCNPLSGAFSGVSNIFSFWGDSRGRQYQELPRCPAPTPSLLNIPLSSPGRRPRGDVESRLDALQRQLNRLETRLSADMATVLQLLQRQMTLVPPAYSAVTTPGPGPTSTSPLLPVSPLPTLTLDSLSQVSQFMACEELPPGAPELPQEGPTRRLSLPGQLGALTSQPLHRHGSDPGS
Protocol: 2. hERG Assay hERG activity was assayed by the patch clamp method on a PatchXpress platform and by FluxOR T1+ assays.

dopamine D4 receptor [2] = target: T1, dopamine D4 receptor; assay: Functional assay against the dopamine D4 receptor; type: cell-based; conditions: data not shown
Source text: as §2

dopamine D2 receptor = dopamine D2 receptor (Homo sapiens (Human), UniProt P14416); assay: Functional assay against the dopamine D2 receptor; type: cell-based; conditions: data not shown
Chain of dopamine D2 receptor (P14416 whole entry, species assumed): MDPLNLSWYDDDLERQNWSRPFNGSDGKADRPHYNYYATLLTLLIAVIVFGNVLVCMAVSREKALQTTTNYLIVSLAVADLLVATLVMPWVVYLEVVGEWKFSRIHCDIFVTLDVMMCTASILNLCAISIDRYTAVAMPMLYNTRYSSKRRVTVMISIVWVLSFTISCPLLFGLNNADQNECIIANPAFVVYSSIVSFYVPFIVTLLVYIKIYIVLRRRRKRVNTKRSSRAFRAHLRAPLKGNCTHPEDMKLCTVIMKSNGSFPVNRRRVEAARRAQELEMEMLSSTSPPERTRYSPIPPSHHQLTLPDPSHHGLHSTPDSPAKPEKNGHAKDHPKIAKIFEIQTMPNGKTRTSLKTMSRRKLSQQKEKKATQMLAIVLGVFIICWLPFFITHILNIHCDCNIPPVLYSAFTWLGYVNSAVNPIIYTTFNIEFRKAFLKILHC
Source text: as §2

5HT1b receptor = 5HT1b receptor (Homo sapiens (Human), UniProt P28222); assay: Secondary radioligand binding assay, 5HT1b; conditions: average of at least two experiments
Chain of 5HT1b receptor (P28222 whole entry): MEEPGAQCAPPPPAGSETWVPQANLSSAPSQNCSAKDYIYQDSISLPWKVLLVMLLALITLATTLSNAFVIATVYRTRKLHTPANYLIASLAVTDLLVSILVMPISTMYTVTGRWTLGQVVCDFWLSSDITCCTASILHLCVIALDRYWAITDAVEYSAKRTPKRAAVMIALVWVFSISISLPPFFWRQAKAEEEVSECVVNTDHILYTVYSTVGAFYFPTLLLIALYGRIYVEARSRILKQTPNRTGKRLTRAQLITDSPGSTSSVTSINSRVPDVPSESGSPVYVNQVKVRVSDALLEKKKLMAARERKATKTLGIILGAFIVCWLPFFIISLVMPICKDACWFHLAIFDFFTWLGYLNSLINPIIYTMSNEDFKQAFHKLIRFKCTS

[3] = target: Alpha1D adrenergic receptor (Homo sapiens (Human), UniProt P25100); assay: Secondary radioligand binding assay, Alpha1D; conditions: average of at least two experiments
Chain of Alpha1D adrenergic receptor (P25100 whole entry): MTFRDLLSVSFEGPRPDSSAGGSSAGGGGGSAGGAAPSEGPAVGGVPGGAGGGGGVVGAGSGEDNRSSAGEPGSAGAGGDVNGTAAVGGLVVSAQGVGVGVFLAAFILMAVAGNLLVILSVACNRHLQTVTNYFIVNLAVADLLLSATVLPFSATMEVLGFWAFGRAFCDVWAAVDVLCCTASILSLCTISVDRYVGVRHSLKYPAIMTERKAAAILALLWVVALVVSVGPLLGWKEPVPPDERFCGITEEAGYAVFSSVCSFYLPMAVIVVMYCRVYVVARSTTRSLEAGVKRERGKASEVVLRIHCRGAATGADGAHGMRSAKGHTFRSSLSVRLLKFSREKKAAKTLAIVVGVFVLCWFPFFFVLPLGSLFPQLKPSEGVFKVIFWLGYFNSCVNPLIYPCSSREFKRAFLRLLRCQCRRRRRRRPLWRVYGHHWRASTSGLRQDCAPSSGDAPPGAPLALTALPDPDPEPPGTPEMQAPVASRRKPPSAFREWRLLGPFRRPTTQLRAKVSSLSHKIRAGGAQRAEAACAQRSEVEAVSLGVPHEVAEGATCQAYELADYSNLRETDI
Protocol: as §1, §2, §3
as §4, with “above, except where described below.” for “above.”, “20)” for “19)”, “the appropriate buffer” for “Dopamine Binding Buffer”, “21)” for “20)”, “the appropriate buffer.” for “Dopamine Binding Buffer.”
The 250 μl reactions are incubated at room temperature and shielded from light (to prevent photolysis of light-sensitive ligands) for 1 hour (for α1 receptors, 40 min for α2 receptors, and 1.5 hours for β receptors), then harvested by rapid filtration onto Whatman GF/B glass fiber filters pre-soaked with 0.3% polyethyleneimine using a 96-well Brandel harverster. Four rapid 500-μl washes are performed with chilled distilled water (for α1 and β receptors) or 0.1% polyethyleneimine (for α2 receptors) to reduce non-specific binding. Filters are placed in 6 ml scintillation tubes and allowed to dry overnight and the samples are treated to obtain data as described above.

[4] = Metabolic stability assay (in vitro), mouse hepatic microsomes; type: in vitro ADME; conditions: mouse liver microsomes, 0.5 μM test compound
Protocol: 3. Metabolic Stability Assay (In Vitro)
Metabolic stability was assessed, generating the in vitro intrinsic clearance (Cli) following incubation of test compound with mouse hepatic microsomes. The assay was performed as previously described (Ruda et al. (2010), “Aryl Phosphoramidates of 5-phosho erythronohydroxamic acid, a new class of potent trypanocidal agents”, J. Med. Chem. 53, pp 6071-6078).
Briefly, each test compound (0.5 μM) was incubated with pooled female mouse liver microsomes (Tebu-Bio, UK; 0.5 mg/ml 50 mM potassium phosphate buffer, pH7.4) and the reaction started with addition of excess NADPH (8 mg/ml 50 mM potassium phosphate buffer, pH7.4) Immediately, at time zero, then at 3, 6, 9, 15 and 30 minutes an aliquot (50 μl) of the incubation mixture was removed and mixed with acetonitrile (100 μl) to stop the reaction. Internal standard was added to all samples. […]
XLfit (IDBS, UK) was used to calculate the exponential decay and consequently the rate constant (k) from the ratio of peak area of test compound to internal standard at each timepoint. The rate of intrinsic clearance (CLi) of each compound was then calculated using the following equation (1): CLi(ml/min/g liver)=k×V×Microsomal protein yield (1) where V (ml/mg protein) is the incubation volume/mg protein added and microsomal protein yield is taken as 52.5 mg protein/g liver. […]

[5] = receptor binding, average of at least two experiments, read-out: Ki D4
[6] = read-out: Ki dopamine D4 (relatively high affinity)

| pKi (5HT1a receptor) | SMILES | pKi (dopamine D4 receptor [1]; [5]) | other results |
| --- | --- | --- | --- |
| 5.54 | c1ccc(OC[C@H]2CN(CCN3CCc4ccccc43)CCO2)nc1 [Compound 15r, (R)-4-(2-(Indolin-1-yl)ethyl)-2-((pyridin-2-yloxy)methyl)morpholine] | 6.09 | – |
| – | Cc1ccnc(OC[C@H]2CN(CCN3CCc4ccccc43)CCO2)c1 [Compound 17r, (R)-4-(2-(Indolin-1-yl)ethyl)-2-(((4-methylpyridin-2-yl)oxy)methyl)morpholine] | 5.71 | – |
| – | O=C(CN1CCO[C@H](COc2ccccc2)C1)N1CCc2ccccc21 [Compound 18s, (S)-1-(Indolin-1-yl)-2-(2-(phenoxymethyl)morpholino)ethanone] | 5.26 | – |
| – | c1cncc(OC[C@H]2CN(CCN3CCc4ccccc43)CCO2)c1 [Compound 21r, (R)-4-(2-(Indolin-1-yl)ethyl)-2-((pyridin-3-yloxy)methyl)morpholine] | 5.62 | – |
| – | Clc1cccc(OC[C@@H]2CN(CCN3CCc4ccccc43)CCO2)c1 [Compound 23s, (S)-2-((3-chlorophenoxy)methyl)-4-(2-(indolin-1-yl)ethyl)morpholine] | – | pKi (5HT2c receptor): 5.47; pKi [3]: 5.38 |
| – | Cc1ncccc1OC[C@@H]1CN(CCN2CCc3ccccc32)CCO1 [Compound 26s, (S)-4-(2-(Indolin-1-yl)ethyl)-2-(((2-methylpyridin-3-yl)oxy)methyl)morpholine] | > 6.00 and 6.36 | pKi (dopamine D4 receptor [1]; [6]): > 6.00 |
| – | Clc1cncc(OC[C@@H]2CN(CCN3CCc4ccccc43)CCO2)c1 [Compound 27s, (S)-2-(((5-Chloropyridin-3-yl)oxy)methyl)-4-(2-(indolin-1-yl)ethyl)morpholine] | – | mouse hepatic microsomal Cli (intrinsic clearance) [4]: 25 mL/min/g; hERG inhibition pEC50 (hERG): 5.51+/−0.13 |
| – | Cc1ccc(OC[C@@H]2CN(CCN3CCc4ccccc43)CCO2)cn1 [Compound 28s, (S)-4-(2-(Indolin-1-yl)ethyl)-2-(((6-methylpyridin-3-yl)oxy)methyl)morpholine] | > 6.00 | pKi (dopamine D4 receptor [1]; [6]): > 6.00 |
| – | Cc1ccnc(C)c1OC[C@H]1CN(CCN2CCc3ccccc32)CCO1 [Compound 29r, (R)-2-(((2,4-Dimethylpyridin-3-yl)oxy)methyl)-4-(2-(indolin-1-yl)ethyl)morpholine] | 5.31 | – |
| 6.23 | Cc1ncccc1OC[C@@H]1CN(CC(=O)N2c3ccccc3CC2C)CCO1.Cl (some centres unmarked) [Compound 60] | – | – |
| 6.27 | Cc1ncccc1OC[C@@H]1CN(CC(=O)N2c3ccccc3C[C@H]2C)CCO1 [Compound 61] | – | pKi [3]: < 5.00 |
| 5.18 | Cc1ncccc1OC[C@H]1CN(CC(=O)N2c3ccccc3CC2C)CCO1 (some centres unmarked) [Compound 62] | – | – |
| 5.30 | Cc1ncccc1OC[C@H]1CN(CC(=O)N2c3ccccc3C[C@H]2C)CCO1 [Compound 63] | – | – |
| 5.12 | Cc1ccccc1OC[C@H]1CN(CC(=O)N2c3ccccc3CC2C)CCO1 (some centres unmarked) [Compound 66] | – | pKi [3]: < 5.00 |
| < 5.00 | C[C@@H]1Cc2ccccc2N1C(=O)CN1CCO[C@@H](COc2ccncc2)C1 [Compound 67] | – | – |
| < 5.00 | CC1Cc2ccccc2N1C(=O)CN1CCO[C@@H](COc2ccncc2)C1 (some centres unmarked) [Compound 68] | – | – |
| < 5.00 | CC1Cc2ccccc2N1C(=O)CN1CCO[C@@H](COc2ccccn2)C1 (some centres unmarked) [Compound 69] | – | – |
| 5.20 | Cc1ccnc(OC[C@H]2CN(CC(=O)N3c4ccccc4CC3C)CCO2)c1 (some centres unmarked) [Compound 70] | – | pKi (5HT2c receptor): 5.20 |

| SMILES | pKi (5HT1a receptor) | pKi (dopamine D4 receptor [1]; [5]) | other results |
| --- | --- | --- | --- |
| c1ccc(OC[C@@H]2CN(CCN3CCc4ccccc43)CCO2)cc1 [Compound 19s, (S)-4-(2-(Indolin-1-yl)ethyl)-2-(phenoxymethyl)morpholine] | 9.22 | > 6.00 and 6.88 | pKi (5HT2c receptor): 5.17 |
| c1cncc(OC[C@@H]2CN(CCN3CCc4ccccc43)CCO2)c1 [Compound 21s, (S)-4-(2-(Indolin-1-yl)ethyl)-2-((pyridin-3-yloxy)methyl)morpholine] | 5.00 | 6.74 | EC50 (hERG; read-out: hERG inhibition pEC50 (converted)): 1510 nM; function at the dopamine D4 receptor (dopamine D4 receptor [2]): inverse agonists; function at the dopamine D2 receptor (dopamine D2 receptor): inverse agonists |
| O=C(CN1CCO[C@@H](COc2cccc(Cl)c2)C1)N1CCc2ccccc21 [Compound 22r, (R)-2-(2-((3-chlorophenoxy)methyl)morpholino)-1-(indolin-1-yl)ethanone] | 6.42 | 6.27 | function at the dopamine D4 receptor (dopamine D4 receptor [2]): inverse agonists; function at the dopamine D2 receptor (dopamine D2 receptor): inverse agonists |
| O=C(CN1CCO[C@H](COc2cccc(Cl)c2)C1)N1CCc2ccccc21 [Compound 22s, (S)-2-(2-((3-Chlorophenoxy)methyl)morpholino)-1-(indolin-1-yl)ethanone] | 5.86 | 5.54 | pKi (5HT1b receptor): 5.11 |
| COc1cccc(OC[C@@H]2CN(CC(=O)N3CCc4ccccc43)CCO2)c1 [Compound 24s, (S)-1-(Indolin-1-yl)-2-(2-((3-methoxyphenoxy)methyl)morpholino)ethanone] | 6.43 | – | pKi (5HT1b receptor): 5.32 |
| COc1cccc(OC[C@@H]2CN(CCN3CCc4ccccc43)CCO2)c1 [Compound 25s, (S)-4-(2-(Indolin-1-yl)ethyl)-2-((3-methoxyphenoxy)methyl)morpholine] | 6.76 | – | pKi (5HT2c receptor): 5.42 |
| CC1Cc2ccccc2N1C(=O)CN1CCO[C@H](COc2cccc(Cl)c2)C1 (some centres unmarked) [Compound 64] | 6.19 | 5.62 | pKi [3]: < 5.00 |
| CC1Cc2ccccc2N1C(=O)CN1CCO[C@@H](COc2cccc(Cl)c2)C1 (some centres unmarked) [Compound 65] | < 5.00 | – | pKi [3]: < 5.00 |
